From ChEMBL document CHEMBL2390951, “Impact of fluorination on proteolytic stability of peptides in human blood plasma” (Bioorg Med Chem, 2013)
Non-standard residues stand in square brackets, D forms with d. Residues, ends and D or L forms follow the SMILES beside them. Abu(4,4,4-F3) = N[C@@H](CC(F)(F)F)C(=O)O; Abu(4,4-F2) = N[C@@H](CC(F)F)C(=O)O; 4Abz = Nc1ccc(C(=O)O)cc1; Abu = CC[C@H](N)C(=O)O

Tested on: Plasma
Assay: (§1) Proteolytic stability in human plasma assessed as compound degradation at 1:3 compound to plasma ratio after 2 hrs by RP-HPLC analysis relative to control
Assay type: ADME, cell-free
Settings: 2 h

| Structure (SMILES) | Stability |
| --- | --- |
| C[C@H](NC(=O)[C@H](C)NC(=O)[C@H](CC(F)(F)F)NC(=O)[C@H](Cc1ccccc1)NC(=O)[C@H](C)NC(=O)[C@H](C)NC(=O)[C@H](CCCCN)NC(=O)c1ccc(N)cc1)C(=O)N[C@@H](C)C(=O)N[C@@H](CCCCN)C(=O)O.O=C(O)C(F)(F)F (H-[4Abz]KAAF[Abu(4,4,4-F3)]AAAK-OH) | Stable |
| CC[C@H](NC(=O)[C@H](C)NC(=O)[C@H](CCCCN)NC(=O)c1ccc(N)cc1)C(=O)N[C@@H](Cc1ccccc1)C(=O)N[C@@H](C)C(=O)N[C@@H](C)C(=O)N[C@@H](C)C(=O)N[C@@H](C)C(=O)N[C@@H](CCCCN)C(=O)O.O=C(O)C(F)(F)F (H-[4Abz]KA[Abu]FAAAAK-OH) | Stable |
| CC[C@H](NC(=O)[C@H](C)NC(=O)[C@H](Cc1ccccc1)NC(=O)[C@H](C)NC(=O)[C@H](C)NC(=O)[C@H](CCCCN)NC(=O)c1ccc(N)cc1)C(=O)N[C@@H](C)C(=O)N[C@@H](C)C(=O)N[C@@H](CCCCN)C(=O)O.O=C(O)C(F)(F)F (H-[4Abz]KAAFA[Abu]AAK-OH) | Stable |
| C[C@H](NC(=O)[C@H](C)NC(=O)[C@H](CC(F)(F)F)NC(=O)[C@H](C)NC(=O)[C@H](Cc1ccccc1)NC(=O)[C@H](C)NC(=O)[C@H](C)NC(=O)[C@H](CCCCN)NC(=O)c1ccc(N)cc1)C(=O)N[C@@H](CCCCN)C(=O)O.O=C(O)C(F)(F)F (H-[4Abz]KAAFA[Abu(4,4,4-F3)]AAK-OH) | Unstable |

Tested on: not listed separately
Assay: as §1
Assay type: ADME, cell-free
Settings: read-out: Drug degradation

| Structure (SMILES) | metabolised at 2 h [%] |
| --- | --- |
| C[C@H](NC(=O)[C@H](C)NC(=O)[C@H](CC(F)F)NC(=O)[C@H](C)NC(=O)[C@H](Cc1ccccc1)NC(=O)[C@H](C)NC(=O)[C@H](C)NC(=O)[C@H](CCCCN)NC(=O)c1ccc(N)cc1)C(=O)N[C@@H](CCCCN)C(=O)O (H-[4Abz]KAAFA[Abu(4,4-F2)]AAK-OH) [listing 1 of 2 here] | ≤ 35 |

Tested on: not listed separately
Assay: Proteolytic stability in Tris-HCl buffer assessed as compound degradation at 20 umol/ml after 2 hrs by RP-HPLC analysis in presence of elastase relative to control
Assay type: ADME
Settings: buffer, 2 h

| Structure (SMILES) | Stability |
| --- | --- |
| CC[C@H](NC(=O)[C@H](C)NC(=O)[C@H](Cc1ccccc1)NC(=O)[C@H](C)NC(=O)[C@H](C)NC(=O)[C@H](CCCCN)NC(=O)c1ccc(N)cc1)C(=O)N[C@@H](C)C(=O)N[C@@H](C)C(=O)N[C@@H](CCCCN)C(=O)O (H-[4Abz]KAAFA[Abu]AAK-OH) | Stable |
| C[C@H](NC(=O)[C@H](C)NC(=O)[C@H](CC(F)(F)F)NC(=O)[C@H](Cc1ccccc1)NC(=O)[C@H](C)NC(=O)[C@H](C)NC(=O)[C@H](CCCCN)NC(=O)c1ccc(N)cc1)C(=O)N[C@@H](C)C(=O)N[C@@H](CCCCN)C(=O)O (H-[4Abz]KAAF[Abu(4,4,4-F3)]AAAK-OH) | Stable |
| C[C@H](NC(=O)[C@H](C)NC(=O)[C@H](CC(F)F)NC(=O)[C@H](C)NC(=O)[C@H](Cc1ccccc1)NC(=O)[C@H](C)NC(=O)[C@H](C)NC(=O)[C@H](CCCCN)NC(=O)c1ccc(N)cc1)C(=O)N[C@@H](CCCCN)C(=O)O (H-[4Abz]KAAFA[Abu(4,4-F2)]AAK-OH) [listing 2 of 2 here] | Stable |
| C[C@H](NC(=O)[C@H](C)NC(=O)[C@H](CC(F)(F)F)NC(=O)[C@H](C)NC(=O)[C@H](Cc1ccccc1)NC(=O)[C@H](C)NC(=O)[C@H](C)NC(=O)[C@H](CCCCN)NC(=O)c1ccc(N)cc1)C(=O)N[C@@H](CCCCN)C(=O)O (H-[4Abz]KAAFA[Abu(4,4,4-F3)]AAK-OH) | Unstable |
| CC[C@H](NC(=O)[C@H](Cc1ccccc1)NC(=O)[C@H](C)NC(=O)[C@H](C)NC(=O)[C@H](CCCCN)NC(=O)c1ccc(N)cc1)C(=O)N[C@@H](C)C(=O)N[C@@H](C)C(=O)N[C@@H](C)C(=O)N[C@@H](CCCCN)C(=O)O (H-[4Abz]KAAF[Abu]AAAK-OH) | Stable |

Same assay, conditions: elastase in Tris-HCl buffer; read-out: Drug degradation

| Structure (SMILES) | metabolised at 2 h, 20 umol/ml [%] |
| --- | --- |
| C[C@H](NC(=O)[C@H](C)NC(=O)[C@H](CC(F)F)NC(=O)[C@H](Cc1ccccc1)NC(=O)[C@H](C)NC(=O)[C@H](C)NC(=O)[C@H](CCCCN)NC(=O)c1ccc(N)cc1)C(=O)N[C@@H](C)C(=O)N[C@@H](CCCCN)C(=O)O (H-[4Abz]KAAF[Abu(4,4-F2)]AAAK-OH) | ≤ 35 |
| C[C@H](NC(=O)[C@H](C)NC(=O)[C@H](C)NC(=O)[C@H](Cc1ccccc1)NC(=O)[C@H](CC(F)F)NC(=O)[C@H](C)NC(=O)[C@H](CCCCN)NC(=O)c1ccc(N)cc1)C(=O)N[C@@H](C)C(=O)N[C@@H](CCCCN)C(=O)O (H-[4Abz]KA[Abu(4,4-F2)]FAAAAK-OH) | ≤ 35 |
